# Source: PubChem BioAssay (NCI)
#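 The concentration for 50% growth inhibition is given as GI50. TGI is the concentration that stops growth completely.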
# Experiments:
# Assay in all cases: inhibition of tumour cell growth, NCI panel, 384-well format
# 786-0 renal = system: 786-0 renal
# A498 renal = system: A498 renal
# A549 NSCLC = system: A549 NSCLC
# BT-549 breast = system: BT-549 breast
# CAKI-1 renal = system: CAKI-1 renal
# CCRF-CEM leukemia = system: CCRF-CEM leukemia
# COLO 205 colon = system: COLO 205 colon
# DU-145 prostate = system: DU-145 prostate
# EKVX NSCLC = system: EKVX NSCLC
# HCC-2998 colon = system: HCC-2998 colon
# HCT-116 colon = system: HCT-116 colon
# HCT-15 colon = system: HCT-15 colon
# HL-60(TB) leukemia = system: HL-60(TB) leukemia
# HOP-62 NSCLC = system: HOP-62 NSCLC
# HOP-92 NSCLC = system: HOP-92 NSCLC
# HS 578T breast = system: HS 578T breast
# HT29 colon = system: HT29 colon
# IGROV1 ovarian = system: IGROV1 ovarian
# K-562 leukemia = system: K-562 leukemia
# KM12 colon = system: KM12 colon
# LOX IMVI melanoma = system: LOX IMVI melanoma
# M14 melanoma = system: M14 melanoma
# MALME-3M melanoma = system: MALME-3M melanoma
# MCF7 breast = system: MCF7 breast
# MDA-MB-231 breast = system: MDA-MB-231 breast
# MDA-MB-435 melanoma = system: MDA-MB-435 melanoma
# MDA-MB-468 breast = system: MDA-MB-468 breast
# MOLT-4 leukemia = system: MOLT-4 leukemia
# NCI-H226 lung = system: NCI-H226 lung
# NCI-H23 lung = system: NCI-H23 lung
# NCI-H322M lung = system: NCI-H322M lung
# NCI-H460 NSCLC = system: NCI-H460 NSCLC
# NCI-H522 lung = system: NCI-H522 lung
# NCI/ADR-RES ovarian = system: NCI/ADR-RES ovarian
# OVCAR-3 ovarian = system: OVCAR-3 ovarian
# OVCAR-4 ovarian = system: OVCAR-4 ovarian
# OVCAR-5 ovarian = system: OVCAR-5 ovarian
# OVCAR-8 ovarian = system: OVCAR-8 ovarian
# PC-3 prostate = system: PC-3 prostate
# RPMI-8226 leukemia = system: RPMI-8226 leukemia
# RXF 393 renal = system: RXF 393 renal
# SF-268 CNS = system: SF-268 CNS
# SF-295 CNS = system: SF-295 CNS
# SF-539 CNS = system: SF-539 CNS
# SK-MEL-2 melanoma = system: SK-MEL-2 melanoma
# SK-MEL-28 melanoma = system: SK-MEL-28 melanoma
# SK-MEL-5 melanoma = system: SK-MEL-5 melanoma
# SK-OV-3 ovarian = system: SK-OV-3 ovarian
# SN12C renal = system: SN12C renal
# SNB-19 CNS = system: SNB-19 CNS
# SNB-75 CNS = system: SNB-75 CNS
# SR leukemia = system: SR leukemia
# SW-620 colon = system: SW-620 colon
# T-47D breast = system: T-47D breast
# TK-10 renal = system: TK-10 renal
# U251 glioblastoma = system: U251 glioblastoma
# UACC-257 melanoma = system: UACC-257 melanoma
# UACC-62 melanoma = system: UACC-62 melanoma
# UO-31 renal = system: UO-31 renal
smiles,measurement,setting,value
CO[C@@H](C)Cn1c(=O)n(C)c2cnc3ccc(-c4cncc(C(C)(C)O)c4)cc3c21,GI50,786-0 renal,133 nM
same,TGI,786-0 renal,4550 nM
same,GI50,A498 renal,33 nM
same,TGI,A498 renal,374 nM
same,GI50,A549 NSCLC,70.7 nM
same,TGI,A549 NSCLC,1180 nM
same,GI50,BT-549 breast,96.2 nM
same,TGI,BT-549 breast,503 nM
same,GI50,CAKI-1 renal,76.1 nM
same,TGI,CAKI-1 renal,485 nM
same,GI50,CCRF-CEM leukemia,77.9 nM
same,TGI,CCRF-CEM leukemia,707 nM
same,GI50,COLO 205 colon,186 nM
same,TGI,COLO 205 colon,1480 nM
same,GI50,DU-145 prostate,84.6 nM
same,TGI,DU-145 prostate,2690 nM
same,GI50,EKVX NSCLC,96.1 nM
same,TGI,EKVX NSCLC,885 nM
same,GI50,HCC-2998 colon,188 nM
same,TGI,HCC-2998 colon,2110 nM
same,GI50,HCT-116 colon,390 nM
same,TGI,HCT-116 colon,1770 nM
same,GI50,HCT-15 colon,154 nM
same,TGI,HCT-15 colon,12500 nM
same,GI50,HL-60(TB) leukemia,463 nM
same,TGI,HL-60(TB) leukemia,1610 nM
same,GI50,HOP-62 NSCLC,109 nM
same,TGI,HOP-62 NSCLC,1340 nM
same,GI50,HOP-92 NSCLC,150 nM
same,TGI,HOP-92 NSCLC,702 nM
same,GI50,HS 578T breast,35.7 nM
same,TGI,HS 578T breast,217 nM
same,GI50,HT29 colon,226 nM
same,TGI,HT29 colon,11100 nM
same,GI50,IGROV1 ovarian,35 nM
same,TGI,IGROV1 ovarian,173 nM
same,GI50,K-562 leukemia,162 nM
same,TGI,K-562 leukemia,11800 nM
same,GI50,KM12 colon,136 nM
same,TGI,KM12 colon,12900 nM
same,GI50,LOX IMVI melanoma,78.2 nM
same,TGI,LOX IMVI melanoma,918 nM
same,GI50,M14 melanoma,151 nM
same,TGI,M14 melanoma,1850 nM
same,GI50,MALME-3M melanoma,62.6 nM
same,TGI,MALME-3M melanoma,327 nM
same,GI50,MCF7 breast,71.1 nM
same,TGI,MCF7 breast,1670 nM
same,GI50,MDA-MB-231 breast,57.1 nM
same,TGI,MDA-MB-231 breast,20600 nM
same,GI50,MDA-MB-435 melanoma,194 nM
same,TGI,MDA-MB-435 melanoma,2360 nM
same,GI50,MDA-MB-468 breast,165 nM
same,TGI,MDA-MB-468 breast,574 nM
same,GI50,MOLT-4 leukemia,81.2 nM
same,TGI,MOLT-4 leukemia,299 nM
same,GI50,NCI-H226 lung,109 nM
same,TGI,NCI-H226 lung,667 nM
same,GI50,NCI-H23 lung,319 nM
same,TGI,NCI-H23 lung,2600 nM
same,GI50,NCI-H322M lung,139 nM
same,TGI,NCI-H322M lung,2300 nM
same,GI50,NCI-H460 NSCLC,45.1 nM
same,TGI,NCI-H460 NSCLC,1570 nM
same,GI50,NCI-H522 lung,104 nM
same,TGI,NCI-H522 lung,1630 nM
same,GI50,NCI/ADR-RES ovarian,2150 nM
same,TGI,NCI/ADR-RES ovarian,15400 nM
same,GI50,OVCAR-3 ovarian,84.6 nM
same,TGI,OVCAR-3 ovarian,894 nM
same,GI50,OVCAR-4 ovarian,126 nM
same,TGI,OVCAR-4 ovarian,722 nM
same,GI50,OVCAR-5 ovarian,206 nM
same,TGI,OVCAR-5 ovarian,1690 nM
same,GI50,OVCAR-8 ovarian,86.8 nM
same,TGI,OVCAR-8 ovarian,11200 nM
same,GI50,PC-3 prostate,84.2 nM
same,TGI,PC-3 prostate,740 nM
same,GI50,RPMI-8226 leukemia,28.2 nM
same,TGI,RPMI-8226 leukemia,78.8 nM
same,GI50,RXF 393 renal,54.6 nM
same,TGI,RXF 393 renal,1370 nM
same,GI50,SF-268 CNS,293 nM
same,TGI,SF-268 CNS,1770 nM
same,GI50,SF-295 CNS,57 nM
same,TGI,SF-295 CNS,413 nM
same,GI50,SF-539 CNS,141 nM
same,TGI,SF-539 CNS,1970 nM
same,GI50,SK-MEL-2 melanoma,243 nM
same,TGI,SK-MEL-2 melanoma,592 nM
same,GI50,SK-MEL-28 melanoma,221 nM
same,TGI,SK-MEL-28 melanoma,3480 nM
same,GI50,SK-MEL-5 melanoma,157 nM
same,TGI,SK-MEL-5 melanoma,463 nM
same,GI50,SK-OV-3 ovarian,88.4 nM
same,TGI,SK-OV-3 ovarian,1010 nM
same,GI50,SN12C renal,84.9 nM
same,TGI,SN12C renal,3570 nM
same,GI50,SNB-19 CNS,334 nM
same,TGI,SNB-19 CNS,12600 nM
same,GI50,SNB-75 CNS,44 nM
same,TGI,SNB-75 CNS,502 nM
same,GI50,SR leukemia,20.2 nM
same,TGI,SR leukemia,55 nM
same,GI50,SW-620 colon,197 nM
same,TGI,SW-620 colon,1360 nM
same,GI50,T-47D breast,77.1 nM
same,TGI,T-47D breast,406 nM
same,GI50,TK-10 renal,220 nM
same,TGI,TK-10 renal,907 nM
same,GI50,U251 glioblastoma,221 nM
same,TGI,U251 glioblastoma,3460 nM
same,GI50,UACC-257 melanoma,429 nM
same,TGI,UACC-257 melanoma,2700 nM
same,GI50,UACC-62 melanoma,102 nM
same,TGI,UACC-62 melanoma,719 nM
same,GI50,UO-31 renal,122 nM
same,TGI,UO-31 renal,6310 nM
